Tested on: T1, Horseradish peroxidase (HRP), soluble HRP
T1 construct: gene PRXC1A; free (soluble) enzyme
Test: absorbance at […] nm, Lineweaver-Burk plot
Format: biochemical, Armoracia rusticana
Settings: soluble (free) enzyme; co-substrate H2O2 (8 mM in standard assay); 20 mM sodium acetate pH 6.0

Compound: COc1ccccc1O [guaiacol]
- Km: 35.5 mM

— publication PMC11568336, “Biochemical properties of immobilized horseradish peroxidase on ceramic and its application in removal of azo dye” (Scientific Reports, 2024)
